Data published in patent publication US6399574B1 (priority 1997, dated 2002).
Where a SMILES comes first, the peptide text is derived from it. [ ]: non-standard residue; d: D form. Gla = N[C@@H](CC(C(=O)O)C(=O)O)C(=O)O

Legend:
NR1-1b/NR2B NMDA subtype = target: T1, NR1-1b/NR2B NMDA subtype (Homo sapiens, UniProt Q05586+Q13224); type: cell-based
T1 construct: expressed in transfected cells; host or cells: oocytes

NR1. 1B subtype = target: T2, NR1. 1B subtype (Homo sapiens, UniProt Q05586); type: cell-based
T2 construct: expressed in transfected cells; host or cells: oocytes

[1] = tested on: Frings audiogenic seizure susceptible mice; conditions: mouse, in vivo

T1 sequence (Q13224 27-1484, other chains not shown): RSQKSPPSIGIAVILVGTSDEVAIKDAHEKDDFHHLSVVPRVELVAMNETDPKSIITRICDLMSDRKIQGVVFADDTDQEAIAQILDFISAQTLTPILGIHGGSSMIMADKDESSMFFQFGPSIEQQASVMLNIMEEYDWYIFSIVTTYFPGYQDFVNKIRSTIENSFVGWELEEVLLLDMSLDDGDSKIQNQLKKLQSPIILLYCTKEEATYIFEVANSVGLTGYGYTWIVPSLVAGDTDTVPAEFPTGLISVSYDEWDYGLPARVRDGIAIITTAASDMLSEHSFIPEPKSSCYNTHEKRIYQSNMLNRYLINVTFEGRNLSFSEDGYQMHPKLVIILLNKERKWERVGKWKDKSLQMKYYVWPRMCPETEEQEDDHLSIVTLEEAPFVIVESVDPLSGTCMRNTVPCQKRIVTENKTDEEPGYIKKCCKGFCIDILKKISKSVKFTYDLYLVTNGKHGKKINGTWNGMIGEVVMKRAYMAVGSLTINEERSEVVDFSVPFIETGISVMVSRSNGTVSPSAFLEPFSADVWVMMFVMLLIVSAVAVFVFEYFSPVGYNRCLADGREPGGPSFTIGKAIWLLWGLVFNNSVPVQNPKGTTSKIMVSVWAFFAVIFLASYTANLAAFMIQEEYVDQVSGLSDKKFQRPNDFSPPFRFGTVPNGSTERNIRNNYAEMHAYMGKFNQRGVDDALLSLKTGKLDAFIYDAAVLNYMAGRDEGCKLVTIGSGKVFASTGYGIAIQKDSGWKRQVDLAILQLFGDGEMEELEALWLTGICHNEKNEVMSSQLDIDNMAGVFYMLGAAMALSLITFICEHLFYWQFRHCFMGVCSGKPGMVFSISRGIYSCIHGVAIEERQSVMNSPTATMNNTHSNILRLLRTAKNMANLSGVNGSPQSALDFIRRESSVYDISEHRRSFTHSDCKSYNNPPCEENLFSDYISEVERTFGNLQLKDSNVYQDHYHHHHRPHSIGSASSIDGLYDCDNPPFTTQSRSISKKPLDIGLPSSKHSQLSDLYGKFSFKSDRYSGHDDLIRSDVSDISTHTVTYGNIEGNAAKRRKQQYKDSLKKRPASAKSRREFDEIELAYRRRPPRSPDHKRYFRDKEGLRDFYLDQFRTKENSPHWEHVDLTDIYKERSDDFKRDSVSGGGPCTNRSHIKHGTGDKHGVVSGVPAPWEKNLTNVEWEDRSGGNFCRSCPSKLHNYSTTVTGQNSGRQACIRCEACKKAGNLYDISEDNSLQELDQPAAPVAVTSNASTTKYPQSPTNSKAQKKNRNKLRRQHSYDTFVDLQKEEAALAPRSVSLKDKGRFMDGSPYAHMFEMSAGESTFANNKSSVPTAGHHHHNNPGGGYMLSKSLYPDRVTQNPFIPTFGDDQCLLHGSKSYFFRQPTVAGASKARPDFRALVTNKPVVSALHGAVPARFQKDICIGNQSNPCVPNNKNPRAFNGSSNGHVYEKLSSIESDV

`CC[C@H](C)[C@H](NC(=O)[C@H](CC(N)=O)NC(=O)[C@H](CC(C(=O)O)C(=O)O)NC(=O)[C@H](CCCNC(=N)N)NC(=O)[C@H](C)NC(=O)[C@H](CC(C)C)NC(=O)[C@H](CC(C(=O)O)C(=O)O)NC(=O)[C@H](C)NC(=O)[C@H](C)NC(=O)[C@H](CCSC)NC(=O)[C@H](CCCCN)NC(=O)[C@H](C)NC(=O)[C@@H](NC(=O)[C@H](CC(C(=O)O)C(=O)O)NC(=O)[C@H](CC(C(=O)O)C(=O)O)NC(=O)[C@H](CCC(=O)O)NC(=O)CN)C(C)C)C(=O)N[C@@H](C)C(=O)N[C@@H](CCCCN)C(=O)NCC(=O)N[C@H]1CSSC[C@@H](C(=O)N[C@@H](Cc2ccc(O)cc2)C(=O)N2CCC[C@H]2C(=O)O)NC(=O)[C@H](CC(N)=O)NC(=O)[C@H](C(C)C)NC(=O)[C@H](CCCCN)NC1=O` [Con R] was tested, and the “affinity for NR1-1b/NR2B relative to NR1-1b/NR2D” value (NR1-1b/NR2B NMDA subtype) was “greater than 50 fold”, the “inhibition of the current produced in response to glutamate and glycine” value (NR1-1b/NR2B NMDA subtype) was “approximately 95%” and the “selectivity for the B splice variant in heteromeric complexes” value (NR1-1b/NR2B NMDA subtype) was “selective for the B splice variant”. For the same molecule, the “inhibition of homomeric NR1 complex, 1B subtype” value (NR1. 1B subtype) was “only inhibited the NR1. 1B subtype”.

For `CSCC[C@H](NC(=O)[C@H](CCCCN)NC(=O)[C@H](CCC(N)=O)NC(=O)[C@H](Cc1ccc(O)cc1)NC(=O)[C@H](CC(C(=O)O)C(=O)O)NC(=O)[C@H](CC(C(=O)O)C(=O)O)NC(=O)[C@H](CCC(=O)O)NC(=O)CN)C(=O)N[C@@H](CC(C)C)C(=O)N[C@@H](CC(C(=O)O)C(=O)O)C(=O)N[C@@H](CC(N)=O)C(=O)N[C@@H](CC(C)C)C(=O)N[C@@H](CCCNC(=N)N)C(=O)N[C@@H](CC(C(=O)O)C(=O)O)C(=O)N[C@@H](C)C(=O)N[C@@H](CCC(=O)O)C(=O)N[C@H](C(=O)N[C@@H](CCCCN)C(=O)N[C@@H](CCCCN)C(=O)N[C@@H](CC(N)=O)C(=O)N[C@@H](C)C(N)=O)C(C)C` [Con T, Gly-Glu-Xaa1-Xaa1-Tyr-Gln-Lys-Met-Leu-Xaa2-Asn-Leu-Arg-Xaa2-Ala-Glu-Val-Lys-Lys-Asn-Ala] (H-GE[Gla][Gla]YQKML[Gla]NLR[Gla]AEVKKNA-NH2), the ED50 [1] was 0.017 nmols and the “ED50 (pmol, i.c.v.)” value [1] was 5.1 pmol.
